Results on 50 compounds are retold here after US8008292B2, “Condensed benzamide compounds and inhibitors of vanilloid receptor subtype 1 (VR1) activity” (Japan Tobacco Inc., priority 2004, dated 2011).

Structures can show the parent of a compound that is named as a salt. Some results are limits rather than exact numbers.

T1 sequence (Q8NER1 whole entry): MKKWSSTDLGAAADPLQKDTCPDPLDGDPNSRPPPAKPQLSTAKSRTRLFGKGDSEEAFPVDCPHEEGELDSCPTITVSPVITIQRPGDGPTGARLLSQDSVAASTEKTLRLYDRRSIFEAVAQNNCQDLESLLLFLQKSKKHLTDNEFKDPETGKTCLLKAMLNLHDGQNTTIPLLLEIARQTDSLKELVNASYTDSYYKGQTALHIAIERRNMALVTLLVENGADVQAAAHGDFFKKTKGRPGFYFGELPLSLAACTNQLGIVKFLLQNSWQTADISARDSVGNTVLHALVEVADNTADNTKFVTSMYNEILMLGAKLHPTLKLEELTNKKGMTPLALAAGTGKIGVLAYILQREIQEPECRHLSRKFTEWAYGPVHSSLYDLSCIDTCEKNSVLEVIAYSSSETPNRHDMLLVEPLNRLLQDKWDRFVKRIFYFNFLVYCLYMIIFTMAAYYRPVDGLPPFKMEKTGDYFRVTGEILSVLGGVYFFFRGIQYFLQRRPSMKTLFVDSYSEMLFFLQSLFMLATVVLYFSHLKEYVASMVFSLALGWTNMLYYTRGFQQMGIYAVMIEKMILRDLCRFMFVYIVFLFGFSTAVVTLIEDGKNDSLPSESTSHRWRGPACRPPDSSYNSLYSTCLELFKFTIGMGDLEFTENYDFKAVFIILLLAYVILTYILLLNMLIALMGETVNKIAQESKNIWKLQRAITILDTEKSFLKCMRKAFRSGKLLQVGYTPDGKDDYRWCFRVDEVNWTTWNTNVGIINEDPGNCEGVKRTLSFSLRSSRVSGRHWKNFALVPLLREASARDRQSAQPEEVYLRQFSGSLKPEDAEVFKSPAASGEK

The assay concerns the target T1, human VR1 (Homo sapiens, UniProt Q8NER1).
T1 construct: expressed in transfected cells
Put plainly: Inhibition of Ca2+ entry in cells caused by proton, in rat glioma (C6BU1) cells stably expressing human VR1 (Fura 2 fluorescence). It is filed as cell-based. The note with it: inhibition of proton-induced Ca2+ entry. The protocol:
The assay for evaluation of VR1 inhibition by the inventive compounds will be described below. The assay was intended to evaluate in vitro inhibition of Ca^2+ entry in cells caused by proton, one of the VR1 agonists.
Rat glioma (C6BU1) cells stably expressing human VR1 were suspended in 20 mM MES buffer (at pH 6.8, contg. 20 mM 2-morpholinoethanesulfonate (referred to as MES hereinafter), 115 mM NaCl, 5 mM KCl, 1 mM MgCl2 and 14 mM D-glucose) to make a cell density of 1×10^6 cells/mL. A fluorescent dye, Fura 2-AMsolution (DojindoCorporate, Cat. No. 343-05401) was added to the suspension to make a 5 μM concentration thereof. Further, Pluronic F-127 (Wako Pure Chemical Industries, Ltd., Cat. No. P6866) was added to make a 0.1% content thereof. Then, the suspension was incubated at 37° C. for 30 min. The cells were harvested and washed three times with 20 mM MES buffer. The cells were suspended again to make a cell density of 5×10^5 cells/mL. A 500-μL portion of the suspension was taken with a cuvette (MC MEDICAL, INC., Cat. No. SSR3121), to which 10 μL of 20 mM MES buffer containing 250 mM CaCl2 was added to incorporate Ca^2+ into the cells. At the same time, 5 μL of a test compound solution (in a range of 100 μM to 10 nM in DMSO) was also added to provide a final concentration thereof in a range of 1 μM to 0.1 nM. Alternatively, 5 μL of DMSO was added as control to provide a final concentration of 1% DMSO. The suspension was set in an intracellular ionometer (CAF-110; JASCO) 10 min after those additions. The cells were stimulated with protons by addition of 60 μL of 20 mM MES buffer at pH 1.1 to the suspension to set its pH at 5.5. The activity of the test compound was determined as a difference between the minimum of fluorescence intensity before agonist stimulation and its maximum after the stimulation. The value of IC50 was derived from percentage of inhibition by the test compound compared with the control.
In the tables, the symbol “++” indicates an IC50 value less than 100 nM and the symbol “+” indicates an IC50 value of 100 nM to 1,000 nM inclusive.
The IC50 is the concentration at which inhibition is half-maximal. Regarding `CC(C)Oc1ccc(NC(=O)c2cccc3c2OCCN3c2ncccc2Cl)cc1C(F)(F)F` [Example 1-055], the IC50 is below 100 nM.

With `O=C(Nc1ccc(OC(F)(F)F)cc1)c1cccc2c1OCCN2c1ncccc1OCc1ccccc1` [Example 1-209], the IC50 was below 100 nM.

`O=C(Nc1ccc(OC(F)(F)F)cc1)c1cccc2c1OCCN2c1ncccc1O` [Example 1-210] gave an IC50 of 100 to 1000 nM.

`O=C(Nc1ccc(C(F)(F)F)c(F)c1)c1cccc2c1OCCN2c1ncc(CO)cc1Cl` [Example 2-06, N-(3-fluoro-4-trifluoromethylphenyl)-4-(3-chloro-5-hydroxymethylpyridin-2-yl)-3,4-dihydro-2H-benzo[1,4]oxazine-8-carboxamide]: the IC50 was below 100 nM.

`Cc1ccc(N2c3cccc(C(=O)Nc4ccc(OCC(C)C)c(F)c4)c3OC[C@@H]2CO)nc1` [Example 4-54] had an IC50 below 100 nM.

The compound `COc1ccc(N2CCOc3c(C(=O)Nc4ccc(OC(F)(F)F)cc4)cccc32)nc1` [Example 1-202] displayed an IC50 below 100 nM.

In the case of `CC(C)(C)c1ccc(NC(=O)c2cccc3c2OCCCN3c2ncccc2Cl)cc1` [Example 1-005, N-(4-tert-butylphenyl)-9-(3-chloropyridin-2-yl)-6,7,8,9-tetrahydro-5-oxa-9-aza-benzocycloheptene-4-carboxamide], the IC50 is below 100 nM.

Turning to `O=C(Nc1ccc(OC(F)(F)F)c(Cl)c1)c1cccc2c1OCCN2c1ncc(CO)cc1Cl` [Example 2-04, N-(3-chloro-4-trifluoromethoxypheny)-4-(3-chloro-5-hydroxymethylpyridin-2-yl)-3,4-dihydro-2H-benzo[1,4]oxazine-8-carboxamide], the IC50 is below 100 nM.

In turn, `O=C(Nc1ccc(N2CCOCC2)c(C(F)(F)F)c1)c1cccc2c1OC[C@H](CO)N2c1ncccc1Cl` [Example 4-39] registered an IC50 below 100 nM.

The compound `O=C(Nc1ccc(C(F)(F)F)cc1)c1cccc2c1OCCN2c1ccc(CO)cn1` [Example 2-07, N-(4-trifluoromethylphenyl)-4-(5-hydroxymethylpyridin-2-yl)-3,4-dihydro-2H-benzo[1,4]oxazine-8-carboxamide hydrochloride] showed an IC50 below 100 nM.

The compound `O=C(Nc1ccc(OC(F)(F)F)cc1)c1cccc2c1OC[C@H](CO)N2c1ncccc1Cl` [Example 4-03, (S)-4-(3-chloropyridin-2-yl)-3-hydroxylmethyl-N-(4-trifluoromethoxyphenyl)-3,4-dihydro-2H-benzo[1,4]oxazine-8-carboxamide] displayed a 50% inhibitory concentration (IC50) below 100 nM.

In the case of `CC(C)(C)c1ccc(NC(=O)c2cccc3c2OCCN3c2ncccc2C(F)(F)F)cc1` [Example 1-017], the 50% inhibitory concentration (IC50) was below 100 nM.

On to `CC(C)c1ccc(NC(=O)c2cccc3c2OCCN3c2ncccc2Cl)cc1` [Example 1-031], for which the IC50 is below 100 nM.

`CN1CCN(c2ncccc2Cl)c2cccc(C(=O)Nc3ccc(C(C)(C)C)cc3)c21` [Example 1-004, N-(4-tert-butylphenyl)-1-(3-chloropyridin-2-yl)-4-methyl-1,2,3,4-tetrahydroquinoxaline-5-carboxamide] displayed a half-inhibitory concentration (IC50) below 100 nM.

For `Cc1ccc(N2CCOc3c(C(=O)NCCc4ccccc4Cl)cccc32)nc1` [Example 1-127], the IC50 is below 100 nM.

Compound `Cc1cnc(N2c3cccc(C(=O)Nc4ccc(OC(C)(C)C)c(F)c4)c3OC[C@@H]2CO)s1` [Example 6-5] yielded an IC50 below 100 nM.

`CC(=O)OCCN(c1ccc(NC(=O)c2cccc3c2OCCN3c2ccc(C)cn2)cc1F)C(C)C` [Example 1-165]: the IC50 was below 100 nM.

The compound `O=C(O)c1cnc(N2CCOc3c(C(=O)Nc4ccc(C(F)(F)F)c(F)c4)cccc32)c(Cl)c1` [Example 1-131] came in with an IC50 of 100 to 1000 nM.

`Cc1cccnc1N1c2cccc(C(=O)Nc3ccc(C(F)(F)F)cc3)c2OC[C@@H]1CO` [Example 4-42] registered an IC50 below 100 nM.

Take `CN(C)c1ccc(NC(=O)c2cccc3c2OCCN3c2ncccc2Cl)cc1` [Example 1-049]: the IC50 lay within 100 to 1000 nM.

The compound `Cc1ccc(N2CCOc3c(C(=O)N[C@H]4CC[C@H](OCC5CCCCC5)CC4)cccc32)nc1` [Example 1-119] showed an IC50 below 100 nM.

Take `Cc1ccc(N2c3cccc(C(=O)Nc4ccc(OC(C)C)c(C(F)(F)F)c4)c3OC[C@@H]2CO)nc1` [Example 4-38]: the IC50 is below 100 nM.

Take `Cc1ccc(N2c3cccc(C(=O)Nc4ccc(N5CCOCC5)c(C(F)(F)F)c4)c3OC[C@@H]2CO)nc1` [Example 4-29]: the IC50 is below 100 nM.

In turn, `CCOC1CCN(c2ccc(NC(=O)c3cccc4c3OCCN4c3ncccc3Cl)cc2F)CC1` [Example 1-102] displayed an IC50 below 100 nM.

Regarding `O=C(Nc1ccc(OC(F)(F)F)cc1)c1cccc2c1OCCN2c1ncccc1OCc1cccnc1` [Example 1-217], the half-inhibitory concentration (IC50) lay within 100 to 1000 nM.

In the case of `Cc1ccc(NC(=O)c2cccc3c2OCCN3c2ncccc2Cl)cc1` [Example 1-009], the half-maximal inhibitory concentration (IC50) is below 100 nM.

As for `O=C(Nc1ccc(Cl)cc1)c1cccc2c1OC[C@H](CO)N2c1ncccc1Cl` [Example 4-16], the concentration for half-maximal inhibition (IC50) was below 100 nM.

`COC(=O)c1ccc(NC(=O)c2cccc3c2OCCN3c2ncccc2Cl)cc1` [Example 1-034, 4-(3-chloropyridin-2-yl)-N-(methoxycarbonylphenyl)-3,4-dihydro-2H-benzo[1,4]oxazine-8-carboxamide]: the concentration for half-maximal inhibition (IC50) was below 100 nM.

As for `O=C(Nc1ccc(Br)c(Cl)c1)c1cccc2c1OC[C@H](CO)N2c1ncccc1Cl` [Example 4-19], the IC50 is below 100 nM.

Regarding `Cc1ccc(N2CCOc3c(C(=O)Nc4ccc(Cl)nc4)cccc32)nc1` [Example 1-093], the 50% inhibitory concentration (IC50) fell in the range of 100 to 1000 nM.

For the compound `Cc1ccc(N2CCOc3c(C(=O)N[C@H]4CC[C@H](OCC(C)C)CC4)cccc32)nc1` [Example 1-187], the half-inhibitory concentration (IC50) was below 100 nM.

`CC(C)COc1ccc(NC(=O)c2cccc3c2OCCN3c2ncc(CO)cc2Cl)cc1` [Example 2-39] showed an IC50 below 100 nM.

The compound `N#Cc1cccnc1N1CCOc2c(C(=O)Nc3ccc(OC(F)(F)F)cc3)cccc21` [Example 1-203] showed a concentration for half-maximal inhibition (IC50) below 100 nM.

With `O=C(Nc1ccc(N2CCCCC2)c(F)c1)c1cccc2c1OCCN2c1ncccc1Cl` [Example 1-095], the half-maximal inhibitory concentration (IC50) is below 100 nM.

On to `CC(=O)OC1CCN(c2ccc(NC(=O)c3cccc4c3OCCN4c3ccc(C)cn3)cc2F)CC1` [Example 1-170], for which the IC50 was 100 to 1000 nM.

The compound `Cc1ccc(N2c3cccc(C(=O)Nc4ccc(OC(C)C)c(F)c4)c3OC[C@@H]2CO)nc1` [Example 4-46] displayed an IC50 below 100 nM.

The compound `NC(=O)[C@H]1COc2c(C(=O)Nc3ccc(C(F)(F)F)cc3)cccc2N1c1ncccc1Cl` [Example 1-233] displayed an IC50 below 100 nM.

Compound `COc1cc(NC(=O)c2cccc3c2OCCN3c2ccc(C)cn2)ccc1C` [Example 1-172] gave an IC50 below 100 nM.

The compound `COc1ccc(NC(=O)c2cccc3c2OCCN3c2ccc(C)cn2)cc1F` [Example 1-159] returned an IC50 below 100 nM.

`O=C(Nc1ccc(Cl)c(C(F)(F)F)c1)c1cccc2c1OC[C@H](CO)N2c1ncccc1Cl` [Example 4-35] came in with a half-maximal inhibitory concentration (IC50) below 100 nM.

The compound `O=C(Nc1cc(Cl)c(Cl)c(Cl)c1)c1cccc2c1OCCN2c1ncc(CO)cc1Cl` [Example 2-21] yielded an IC50 below 100 nM.

With `Cc1ccc(N2c3cccc(C(=O)Nc4ccc(C(F)(F)F)c(F)c4)c3OC[C@@H]2CO)nc1` [Example 4-30], the IC50 is below 100 nM.

The compound `COCC1CCCCN1c1ccc(NC(=O)c2cccc3c2OCCN3c2ccc(C)cn2)cc1F` (centres unmarked) [Example 1-090] registered an IC50 below 100 nM.

As to `COC1CCCN(c2ccc(NC(=O)c3cccc4c3OCCN4c3ccc(C)cn3)cc2F)C1` (centres unmarked) [Example 1-070], the IC50 is below 100 nM.

Compound `CC(C)(C)c1ccc(NC(=O)c2cccc3c2OCCN3c2ncccc2Cl)cc1` [Example 1-001, N-(4-tert-butylphenyl)-4-(3-chloropyridin-2-yl)-3,4-dihydro-2H-benzo[1,4]oxazine-8-carboxamide] returned an IC50 below 100 nM.

`COc1ccc(N2c3cccc(C(=O)Nc4ccc(C(F)(F)F)cc4)c3OC[C@@H]2CO)cc1` [Example 7-09] displayed a half-inhibitory concentration (IC50) below 100 nM.

`CN(C)c1ccc(NC(=O)c2cccc3c2OC[C@H](CO)N3c2ncccc2Cl)cc1C(F)(F)F` [Example 4-20] registered a concentration for half-maximal inhibition (IC50) below 100 nM.

In turn, `CCc1cnc(N2CCOc3c(C(=O)Nc4ccc(Cl)cc4)cccc32)nc1` [Example 5-2, N-(4-chlorophenyl)-4-(5-ethylpyrimidin-2-yl)-3,4-dihydro-2H-benzo[1,4]oxazine-8-carboxamide] displayed an IC50 of 100 to 1000 nM.

For the compound `O=C(Nc1ccc(C(F)(F)F)cc1)c1cccc2c1OC[C@H](CO)N2c1ccc(Cl)cc1` [Example 7-10], the IC50 was below 100 nM.

For `O=C(N[C@H]1CC[C@H](OC2CCCC2)CC1)c1cccc2c1OCCN2c1ncccc1Cl` [Example 1-098], the concentration for half-maximal inhibition (IC50) fell in the range of 100 to 1000 nM.
